{"source": "patent US10046032B2", "about": "“Use of insulin for promoting gastric emptying” (NUTRINIA LTD., priority 2016, dated 2018)", "key": {"preterm infants [1]": {"test_system": "preterm infants", "quoted_text": "A Multi-center, two arms, randomized, double-blinded placebo controlled study was conducted to evaluate the effect of insulin-enriched infant formula on preterm infants. The insulin was given within a liquid infant formula with insulin concentration of 400 μU/ml. The study primary goal was to determine whether insulin supplement within the basic preterm oral formula enhances gastric emptying. The gastric emptying was evaluated by the reduction in the amount of gastric residual of the preterm infants.\nThe infants were randomly assigned to one of two treatment groups: the study product containing insulin as a test group and Placebo supplement as a control group. The parents, the medical team treating the infants and the study monitor were blinded to the treatment arm. From study day 1, the infants in the test group received insulin mixed with the ready to feed (RTF) preterm Materna formula and the control group received a placebo supplement mixed with the same RTF preterm Materna formula.\nThe insulin composition was used according to study definitions and feeding protocol only. Formula administration was begun at study day 1 and continued throughout the following 28 days or discharge day if achieved prior to day 28. […]"}, "preterm infants [2]": {"test_system": "preterm infants", "test": "Singleton study: days until gastric residuals fall, insulin-enriched preterm formula vs placebo", "format": "in vivo, human", "conditions": "singletons", "description": "(§1) Evaluation of gastric residuals (GR) is used in neonatal intensive care units to measure the volume of milk remaining in the stomach at a variable time after a feeding, and as an indicator of gastric emptying (GE).\n(§2) 33 preterm infants, aged up to 7 days old, born between 26-33 weeks of pregnancy, weighing over 750 grams, who are free from high index suspicion for infection showing stable condition were enrolled into this study.\n(§3) The study products included the insulin composition disclosed herein and placebo. The insulin composition is intended to be mixed with 90 ml ready to feed (RTF) preterm infant formula (manufacturer: Nestle Germany, importer: Materna Laboratories, Israel). Once the insulin is added to the formula, the formula has the concentration of 400 μU Insulin/ml formula.\n(§4) Standard feeding bottles and nipples were used.\n(§5) The gastric residual amount was measured after every meal.\nSingletons were examined for number of days until gastric residual measurements reached less than 2 ml/kg body weight (FIG. 3) and until no gastric residuals were emitted (Table 3)."}, "preterm infants [3]": {"test_system": "preterm infants", "test": "Twin pair study: days until gastric residuals fall, insulin-enriched preterm formula vs placebo", "format": "in vivo, human", "conditions": "twin pairs", "description": "as §1, §2, §3, §4, §5\nTwin pairs, treated with insulin as described above, were examined for number of days until gastric residual measurements reached less than 0 ml/kg body weight (FIG. 2 and Table 1) or 2 ml/kg (FIG. 1 and Table 2). […] The enteral administration of insulin strikingly provided a statistically significant improvement in the number of days until gastric residuals reached […] body weight, or <2 ml/kg body weight, relative to control treated infants."}, "[4]": {"conditions": "insulin 400 μU/ml in formula, up to 28 days"}}, "note": "“And” between values parts separate entries of the source, which are not always exact repeats. Equal entries are not always repeated."}
{"substance": "Human insulin", "values": [{"measurement": "Deleterious effects resulting from the insulin administration", "setting": "preterm infants [1]; low birth weight / preterm infants, enteral insulin", "value": "No deleterious effects"}, {"measurement": "Effect on blood glucose or insulin levels", "setting": "preterm infants [1]; orally administered to preterm infants", "value": "without affecting the blood glucose or insulin levels"}, {"measurement": "Time to reach gastric residuals of less than 2 ml/kg versus control", "setting": "preterm infants [2]; FIG. 3, P=0.121", "value": "earlier than the control"}, {"measurement": "Time to reach no gastric residuals (0 ml/kg) versus control", "setting": "preterm infants [2]; Table 3, P=0.021", "value": "earlier than their control singletons"}, {"measurement": "Number of days until no gastric residuals are emitted, Median (range)", "setting": "preterm infants [2]; insulin 400 μU/ml in formula, P=0.021 vs control", "value": "0.0 (0-2) days"}, {"measurement": "Number of days until no gastric residuals are emitted, individual infant", "setting": "preterm infants [2]; treatment infants no. 1-6, insulin 400 μU/ml in formula", "value": "0 days (5×) and 2 days"}, {"measurement": "Time to reach gastric residuals of less than 2 ml/kg or 0 ml/kg versus control twin", "setting": "preterm infants [3]; FIG. 1 (p=0.031) and FIG. 2 (p=0.074)", "value": "earlier than their control infant twin in most twin pairs"}, {"measurement": "Number of days until gastric residuals reached 0 ml/Kg body weight, Median", "setting": "preterm infants [3]; [4]", "value": 0.0, "unit": "days"}, {"measurement": "Number of days until gastric residuals reached < 2 ml/Kg body weight, Median", "setting": "preterm infants [3]; [4]", "value": 0, "unit": "days"}, {"measurement": "Number of days until gastric residuals reached < 2 ml/Kg body weight, Average", "setting": "preterm infants [3]; insulin 400 μU/ml in formula, up to 28 days, P = 0.031 vs control", "value": 3.8, "unit": "days"}, {"measurement": "Number of days until gastric residuals reached 0 ml/Kg body weight, Average", "setting": "preterm infants [3]; insulin 400 μU/ml in formula, up to 28 days, P = 0.074 vs control", "value": 4.1, "unit": "days"}]}
